The structures appear in SMILES notation.

Data set [1] relates to left atrium cordis of guinea pigs. Description: Functional refractory period and contractile force of the electrically stimulated left atrium cordis (paired stimulation, method of Govier). More on the design: species or system female albino Pirbright-white guinea pigs. As to conditions: for EC (125%) / IC25: Cavia porcellus, administered as di-tartrate; for EC (125%): 0.3 h, 18 minutes after administration, read-out: FRP 125% (concentration prolonging functional refractory period to 125%); for IC25: left atrium, read-out: F 75% (concentration reducing contractile force to 75% of initial value); for quotient F 75%/FRP 125%: therapeutic index of the anti-arrhythmic action on the isolated organ. From the text: 148, No. 1, pages 100-105 (1965). All anti-arrhythmic drugs which at present are used in therapy and which differ in their chemical structure are distinguished by being able to prolong the functional refractory period. In addition thereto said method permits to detect the effects of compounds on the contractile force of the myocardium. […] Said quotient supplies information regarding the therapeutic index of the anti-arrhythmic action of a compound on the isolated organ. See P. Greef in Verhandlung der Deutschen Gesellschaft fuer Kreislaufforschung vol. 35, pages 88-97 (1969).

Data set [2] relates to right atrium cordis of guinea pigs. Description: Heart rate of the spontaneously beating, isolated right atrium cordis. Details: species or system female albino Pirbright-white guinea pigs. Particulars: Cavia porcellus, 20 min; 20 minutes after administration; administered as di-tartrate; read-out: FRQ 75% (concentration decreasing heart rate to 75% of initial value). As for the experimental part: The direct effect of the active compound on the heart rate (FPQ) was tested on the spontaneously beating, isolated right atrium cordis of female albino Pirbright-white guinea pigs (GP) of the weight class between 300 g. and 400 g. In Table 3 there is given, as FPQ 75%, the concentration in μmole/l. by which a decrease of the heart rate to 75% of the initial value is achieved 20 minutes after administration of the compound to be tested.

A further data set relates to anesthetized rats. As to the kind of experiment: Effect on heart rate, systolic blood pressure and double product (myocardial oxygen consumption, method of Neill). Type of data set: in vivo. As to conditions: administered as ditartrate; for Change DP: vs initial value. The protocol: The influence of the active compounds according to the present invention on myocardial oxygen consumption has been investigated in animal models and determined according to the method of Neill as described by W. A. Neill, H. H. Levine, R. J. Wagman, and P. Gorlin in Circulation Research, Vol. 12, page 163 (1963). The blood circulation measurements which are required for these tests, namely, systolic blood pressure and heart rate, were determined according to the design of experimental procedure as described by G. Buschmann, W. Schumacher, R. Budden, and U. G. Kuehl in J. Cardiovasc. Pharmacol., Vol. 2, pages 777-795 (1980). As is evident from the following Table 1, the active compound reduces the product* of heart rate and systolic blood pressure. Thus, the tested compound reduces the consumption of oxygen to be supplied to the heart. This effect is observed in intravenous administration (i.v.) as well as on intraduodenal administration (i.d.) and is to be attributed to the action of the compound tested.
Effect upon heart rate (FRQ), systolic blood pressure (Ps)
and the double product (DP) determined on anesthetized rats

The subject of data set [3] is aconitine-induced ventricular extrasystoles in rats. As to the kind of experiment: Anti-arrhythmic activity, aconitine test in rats (method of Raschak). In kind it is in vivo, male Wistar rats. Particulars: for Change in time to occurrence of ES: vs vehicle control. The protocol:
When administering aconitine to rats by continuous intravenous infusion, there are observed in the electrocardiogram considerable disturbances in the heartbeat, such as, for instance, ventricular extrasystoles. The tested animals were male Wistar rats of the weight class between 250 g. and 350 g. The influence of an active compound according to the present invention upon such rats after an aconitine infusion was determined according to the method of Raschak as described by M. Raschak in Arzneim. Forsch. vol. 25, No. 4, pages 639-641 (1975). […] The active compound was administered intravenously in the form of an isotonic sodium chloride solution, i.e. the vehicle, in a dose of 6.0 μmole/kg. The dose administered is one twenthieth of the lethal dose (LD50) as determined on mice. […] After intravenous administration of the active compound to be tested and of the control solution, the aconitine solution was administered by infusion in an amount which was constant per time unit. The period of time was measured within which ventricular extrasystoles (ES) were observed. Said period of time, in minutes, is given in Table 2 as well as the difference in the period of time observed on administering the test compound and the control solution.
One of the active compounds tested is the compound of Example 3, No. 302, i.e., N,N-di-n-butyl-9,9-dimethyl-3,7-diaza bicyclo-(3,3,1)-nonane as described hereinafter. There are also given the results obtained by testing an equitoxic amount of the drug known under the trademark "Lidocain", i.e., 2-(diethylamino)-N-(2,6-dimethyl phenyl)-acetamide.
Anti-arrhythmic activity determined by the […]

The next data set can be described thus: in vivo. As to conditions: mouse, po, peroral administration, mice.

On to `CN1CC2CN(C)CC(C1)C2(C)C` [Comparative compound, N,N',9,9-tetramethyl diaza bicyclo-(3,3,1)-nonane, reference compound], for which, in data set [1], the EC (125%) is 122 µM, the IC25 was about 215 µM and the “quotient F 75%/FRP 125%” value was “about 2”. For the same compound, in data set [2], the IC25 is about 215 µM.
Consider `CCCCN1CC2CN(CCCC)CC(C1)C2(C)C` [Example 3, No. 302, N,N'-di-n-butyl-9,9-dimethyl-3,7-diaza bicyclo-(3,3,1)-nonane], for which the “DP (double product of heart rate and systolic blood pressure)” value was found to be 25 mm.Hg/min. × 1000 in the data set with anesthetized rats (13.5 μmole/kg i.v., initial value 39) and 30 mm.Hg/min. × 1000 in the data set with anesthetized rats (100 μmole/kg i.d., initial value 41). Moreover, the “Ps (systolic blood pressure)” value in the data set with anesthetized rats (13.5 μmole/kg i.v., initial value 104) came to 147 mm.Hg; in the data set with anesthetized rats (100 μmole/kg i.d., initial value 101), 125 mm.Hg. In addition, the “FRQ (heart rate)” value in the data set with anesthetized rats (13.5 μmole/kg i.v., initial value 372) worked out at 174 min⁻¹; in the data set with anesthetized rats (100 μmole/kg i.d., initial value 406) it was 238 min⁻¹. Also, the “Change DP” value in the data set on anesthetized rats (13.5 μmole/kg i.v.) is reported as -36%; in the data set with anesthetized rats (100 μmole/kg i.d.), -27%. For the same compound, the EC (125%) in data set [1] worked out at 1 µM. Also, the IC25 in data set [1] came to 104 µM; in data set [2], 3 µM. Further, in data set [1], the “quotient F 75%/FRP 125%” value stood at 104. Also, the “Time to occurrence of ES (ventricular extrasystoles)” value in data set [3] (6.0 μmole/kg i.v., vehicle control 6.7 min, administered as di-tartrate) amounted to 8.2 min. Besides, in data set [3] (6.0 μmole/kg i.v., administered as di-tartrate), the “Change in time to occurrence of ES” value was “+23%”. The LD50 – broadly, the dose expected to kill half of the subjects tested – in the data set “in vivo” is 1040 µmol/kg.
`CCN(CC)CC(=O)Nc1c(C)cccc1C` [Lidocain, 2-(diethylamino)-N-(2,6-dimethylphenyl)-acetamide, reference compound]: in data set [3] (10.0 μmole/kg i.v. (equitoxic amount), vehicle control 6.3 min), the “Time to occurrence of ES (ventricular extrasystoles)” value came out at 6.6 min. For the same compound, in data set [3] (10.0 μmole/kg i.v. (equitoxic amount)), the “Change in time to occurrence of ES” value is “+5%”.
